In EP0908457B1, “3-(1,2-benzisothiazol- and isoxazol-5-Y1)-2,4(1H,3H)-pyrimidinedione or thione and 3-(1,2-benzisothiazol- and isoxazol-5-y1)-4(3H)-pyrimidinone or thione herbicidal agents” (BASF AKTIENGESELLSCHAFT, priority 1997, dated 1999):

Legend:
[1] = test system: Oryza sativa, (L.) Tebonnet; test: Rice tolerance to post-transplant applications under flooded paddy conditions (Example 187), ORYSAT (Rice, Tebonnet); conditions: rated three to four weeks after treatment
[2] = test system: Cyperus serotinus, Rottb.; test: Preemergence weed control under flooded paddy conditions, CYPSE (Flatsedge); format: in vivo; conditions: preemergence, rated three to four weeks after treatment
[3] = test system: Monochoria vaginalis, Presl.; test: Preemergence weed control under flooded paddy conditions, MOOVA (Monochoria); format: in vivo; conditions: preemergence, flooded paddy, rated three to four weeks after treatment
Cyperus iria = test: Preemergence weed control under flooded paddy conditions, CYPIR (Rice Flatsedge); format: in vivo; conditions: preemergence, flooded paddy, rated three to four weeks after treatment
[4] = test system: Echinochloa oryzoides (Ard.) Fritsch.; test: Preemergence weed control under flooded paddy conditions, ECHORC (Watergrass (Calif.)); format: in vivo; conditions: preemergence, flooded paddy, rated three to four weeks after treatment
Sagittaria pygmaea, L. = test: Preemergence weed control under flooded paddy conditions, SAGPY (Arrowhead (Pygmaea)); format: in vivo; conditions: preemergence, flooded paddy, rated three to four weeks after treatment

| Compound | ORYSAT herbicidal effect rating ([1]; Rate 0.0320 kg/ha) | ORYSAT herbicidal effect rating ([1]; Rate 0.0620 kg/ha) | ORYSAT herbicidal effect rating ([1]; Rate 0.1250 kg/ha) | ORYSAT herbicidal effect rating ([1]; Rate 0.2500 kg/ha) | CYPSE herbicidal effect rating ([2]; Rate 0.0320 kg/ha) | MOOVA herbicidal effect rating ([3]; Rate 0.0320 kg/ha) | MOOVA herbicidal effect rating ([3]; Rate 0.0620 kg/ha) | MOOVA herbicidal effect rating ([3]; Rate 0.1250 kg/ha) | MOOVA herbicidal effect rating ([3]; Rate 0.2500 kg/ha) | CYPIR herbicidal effect rating (Cyperus iria; Rate 0.0320 kg/ha) | CYPIR herbicidal effect rating (Cyperus iria; Rate 0.0620 kg/ha) | CYPIR herbicidal effect rating (Cyperus iria; Rate 0.1250 kg/ha) | CYPIR herbicidal effect rating (Cyperus iria; Rate 0.2500 kg/ha) | ECHORC herbicidal effect rating ([4]; Rate 0.0320 kg/ha) | ECHORC herbicidal effect rating ([4]; Rate 0.0620 kg/ha) | ECHORC herbicidal effect rating ([4]; Rate 0.1250 kg/ha) | ECHORC herbicidal effect rating ([4]; Rate 0.2500 kg/ha) | SAGPY herbicidal effect rating (Sagittaria pygmaea, L.; Rate 0.0320 kg/ha) | SAGPY herbicidal effect rating (Sagittaria pygmaea, L.; Rate 0.0620 kg/ha) | SAGPY herbicidal effect rating (Sagittaria pygmaea, L.; Rate 0.1250 kg/ha) | also measured |
| --- | --- | --- | --- | --- | --- | --- | --- | --- | --- | --- | --- | --- | --- | --- | --- | --- | --- | --- | --- | --- | --- |
| Cn1c(C(F)(F)F)cc(=O)n(-c2ccc3snc(-c4ccc(OCC(=O)O)cc4)c3c2)c1=O [Example 281, Acetic acid, {p-{5-[3,6-dihydro-3-methyl-2,6-dioxo-4-(trifluoromethyl)-1(2H)-pyrimidinyl]-1,2-benzisothiazol-3-yl}phenoxy}-] | 0.0 | 2.0 | 4.0 | 6.0 | 9.0 | 9.0 | 9.0 | 9.0 | 9.0 | 4.0 | 8.0 | 9.0 | 9.0 | 0.0 | 5.9 | 7.1 | 9.0 | 0.0 | 0.0 | 2.0 | ORYSAT herbicidal effect rating ([1]; Rate 0.5000 kg/ha): 4.0; CYPSE herbicidal effect rating ([2]; Rate 0.0620 kg/ha): 9.0; CYPSE herbicidal effect rating ([2]; Rate 0.1250 kg/ha): 9.0; CYPSE herbicidal effect rating ([2]; Rate 0.2500 kg/ha): 9.0; CYPSE herbicidal effect rating ([2]; Rate 0.5000 kg/ha): 9.0; MOOVA herbicidal effect rating ([3]; Rate 0.5000 kg/ha): 9.0; CYPIR herbicidal effect rating (Cyperus iria; Rate 0.5000 kg/ha): 9.0; ECHORC herbicidal effect rating ([4]; Rate 0.5000 kg/ha): 7.0; SAGPY herbicidal effect rating (Sagittaria pygmaea, L.; Rate 0.2500 kg/ha): 8.0; SAGPY herbicidal effect rating (Sagittaria pygmaea, L.; Rate 0.5000 kg/ha): 9.0 |
| Cn1c(C(F)(F)F)cc(=O)n(-c2ccc3snc(CS(=O)(=O)CC(=O)O)c3c2)c1=O [Example 282, Acetic acid, {{{5-[3,6-dihydro-3-methyl-2,6-dioxo-4-(trifluoromethyl)-1(2H)-pyrimidinyl]-1,2-benzisothiazol-3-yl}methyl}sulfonyl}-] | 2.0 | 3.0 | 4.0 | 4.0 | 0.0 | 6.0 | 9.0 | 9.0 | 9.0 | 4.0 | 8.0 | 8.0 | 8.0 | 0.0 | 0.0 | 1.9 | 0.0 | 0.0 | 0.0 | 0.0 | ORYSAT herbicidal effect rating ([1]; Rate 0.5000 kg/ha): 0.0; CYPSE herbicidal effect rating ([2]; Rate 0.0620 kg/ha): 0.0; CYPSE herbicidal effect rating ([2]; Rate 0.1250 kg/ha): 0.0; CYPSE herbicidal effect rating ([2]; Rate 0.2500 kg/ha): 0.0; CYPSE herbicidal effect rating ([2]; Rate 0.5000 kg/ha): 0.0; MOOVA herbicidal effect rating ([3]; Rate 0.5000 kg/ha): 9.0; CYPIR herbicidal effect rating (Cyperus iria; Rate 0.5000 kg/ha): 9.0; ECHORC herbicidal effect rating ([4]; Rate 0.5000 kg/ha): 0.0; SAGPY herbicidal effect rating (Sagittaria pygmaea, L.; Rate 0.2500 kg/ha): 0.0; SAGPY herbicidal effect rating (Sagittaria pygmaea, L.; Rate 0.5000 kg/ha): 0.0 |
| Cn1c(C(F)(F)F)cc(=O)n(-c2ccc3snc(CSCC(=O)O)c3c2)c1=O [Example 283, Acetic acid, {{{5-[3,6-dihydro-3-methyl-2,6-dioxo-4-(trifluoromethyl)-1(2H)-pyrimidinyl]-1,2-benzisothiazol-3-yl}methyl}thio}-] | 2.0 | 2.0 | 4.0 | 5.0 | – | 2.0 | 8.0 | 9.0 | 9.0 | 0.0 | 4.0 | 8.0 | 9.0 | 0.0 | 3.4 | 3.4 | 6.0 | 0.0 | 0.0 | 0.0 | ORYSAT herbicidal effect rating ([1]; Rate 0.5000 kg/ha): 4.0; CYPSE herbicidal effect rating ([2]; Rate 0.5000 kg/ha): 0.0; MOOVA herbicidal effect rating ([3]; Rate 0.5000 kg/ha): 9.0; CYPIR herbicidal effect rating (Cyperus iria; Rate 0.5000 kg/ha): 9.0; ECHORC herbicidal effect rating ([4]; Rate 0.5000 kg/ha): 6.0; SAGPY herbicidal effect rating (Sagittaria pygmaea, L.; Rate 0.5000 kg/ha): 9.0 |
| Cn1c(C(F)(F)F)cc(=O)n(-c2ccc3snc(C=C(Br)Br)c3c2)c1=O [Example 284, 2,4(1H,3H)-Pyrimidinedione, 3-[3-(2,2-dibromovinyl)-1,2-benzisothiazol-5-yl]-1-methyl-6-(trifluoromethyl)-] | 0.0 | 0.0 | 0.0 | 0.0 | 0.0 | 4.0 | 9.0 | 9.0 | 9.0 | 4.0 | 9.0 | 9.0 | 9.0 | 0.0 | 0.0 | 0.0 | 0.0 | 0.0 | 0.0 | 0.0 | CYPSE herbicidal effect rating ([2]; Rate 0.0620 kg/ha): 0.0; CYPSE herbicidal effect rating ([2]; Rate 0.1250 kg/ha): 2.0; CYPSE herbicidal effect rating ([2]; Rate 0.2500 kg/ha): 9.0; SAGPY herbicidal effect rating (Sagittaria pygmaea, L.; Rate 0.2500 kg/ha): 0.0 |
| CC(=O)/C=C/c1nsc2ccc(-n3c(=O)cc(C(F)(F)F)n(C)c3=O)cc12 [Example 285, 2,4(1H,3H)-Pyrimidinedione, 1-methyl-3-[3-(3-oxo-1-butenyl)-1,2-benzisothiazol-5-yl]-6-(trifluoromethyl)-, (E)-] | 3.0 | 7.0 | 7.0 | 7.0 | 0.0 | 4.0 | 9.0 | 9.0 | 9.0 | 5.0 | 9.0 | 9.0 | 9.0 | 3.0 | 7.0 | 7.0 | 7.0 | 0.0 | 0.0 | 0.0 | CYPSE herbicidal effect rating ([2]; Rate 0.0620 kg/ha): 0.0; CYPSE herbicidal effect rating ([2]; Rate 0.1250 kg/ha): 0.0; CYPSE herbicidal effect rating ([2]; Rate 0.2500 kg/ha): 0.0; SAGPY herbicidal effect rating (Sagittaria pygmaea, L.; Rate 0.2500 kg/ha): 3.0 |
| Cn1c(C(F)(F)F)cc(=O)n(-c2ccc3snc(C=C(F)Br)c3c2)c1=O [Example 286, 2,4(1H,3H)-Pyrimidinedione, 3-[3-(2-bromo-2-fluorovinyl)-1,2-benzisothiazol-5-yl]-1-methyl-6-(trifluoromethyl)-] | 0.0 | 0.0 | 1.0 | 2.0 | 0.0 | 9.0 | 9.0 | 9.0 | 9.0 | 3.0 | 7.0 | 7.0 | 9.0 | 0.0 | 0.0 | 3.0 | 8.0 | 0.0 | 0.0 | 0.0 | CYPSE herbicidal effect rating ([2]; Rate 0.0620 kg/ha): 0.0; CYPSE herbicidal effect rating ([2]; Rate 0.1250 kg/ha): 0.0; CYPSE herbicidal effect rating ([2]; Rate 0.2500 kg/ha): 0.0; SAGPY herbicidal effect rating (Sagittaria pygmaea, L.; Rate 0.2500 kg/ha): 0.0 |
| Cn1c(C(F)(F)F)cc(=O)n(-c2ccc3snc(C=C(Cl)Cl)c3c2)c1=O [Example 287, 2,4(1H,3H)-Pyrimidinedione, 3-[3-(2,2-dichlorovinyl)-1,2-benzisothiazol-5-yl]-1-methyl-6-(trifluoromethyl)-] | 0.0 | 3.0 | 3.0 | 5.0 | 0.0 | 9.0 | 9.0 | 9.0 | 9.0 | 0.0 | 9.0 | 9.0 | 9.0 | 0.0 | 2.0 | 5.0 | 7.0 | 0.0 | 0.0 | 0.0 | CYPSE herbicidal effect rating ([2]; Rate 0.0620 kg/ha): 0.0; CYPSE herbicidal effect rating ([2]; Rate 0.1250 kg/ha): 0.0; CYPSE herbicidal effect rating ([2]; Rate 0.2500 kg/ha): 4.0; SAGPY herbicidal effect rating (Sagittaria pygmaea, L.; Rate 0.2500 kg/ha): 0.0 |
